The source of these data is patent US20230322756A1, “FUSED IMIDAZOLE DERIVATIVE, PREPARATION METHOD THEREFOR, AND MEDICAL USE THEREOF” (JIANGSU HENGRUI MEDICINE CO., LTD., priority 2020, published 2023).

In series [1] the target is CYP2C19 (Homo sapiens (Human), UniProt P33261). Nature of the series: Time-dependent inhibition (TDI) of CYP2C19 (S)-mephenytoin site of metabolism in human liver microsomes. Format: in vitro ADME. The following applies: for IC50: (S)-mephenytoin. Here is the method:
I. Materials and Instruments • 1. Phosphate buffered saline (20×PBS, purchased from Sangon); • 2. NADPH (ACROS, A2646-71-1); • 3. Human liver microsome (Corning Gentest, Cat No. 452161, Lot No. 905002, Donor36); • 4. ABI QTrap 4000 LC-MS System (AB Sciex); • 5. ZORBAX Extend-C18, 3×50 mm, 3.5 μm (Agilent, USA); • 6. CYP probe substrate ((S)-mephenytoin/20 μM, powder purchased from J&K Scientific Ltd., Cat No. 303768) and positive control inhibitor (ticlopidine, powder purchased from SIGMA, Cat No. T6654-1G).
A 100 mM PBS buffer was prepared. A 15 mM MgCl2 solution and a 10 mM NADPH solution were prepared using the buffer. A 0.5 mg/mL microsome solution was prepared using the 15 mM MgCl2 solution. A 30 mM stock solution was diluted with DMSO to a series of solutions I with concentrations of 30 mM, 10 mM, 3 mM, 1 mM, 0.3 mM, 0.1 mM, 0.03 mM and 0 mM, which were then 10-fold diluted with acetonitrile (ACN) and finally 50-fold diluted with phosphate-buffered solution (PBS) to obtain a series of test working solutions II (60 μM, 20 μM, 6 μM, 2 μM, 0.6 μM, 0.2 μM, 0.06 μM and 0 μM). A 20 μM working solution of (S)-mephenytoin was prepared by dilution with PBS.
The above prepared series of working solutions were well shaken and divided into 50 μL aliquots in corresponding reaction plates (+NADPH group and −NADPH group were set) in triplicate. 20 μL of the liver microsome working solution was added to each 96-well plate. 10 μL of NADPH was added to +NADPH group. The plates were incubated in a water bath at 37° C., and a timer was set on the incubation. After 30 min of incubation, the plates were taken out, and +NADPH group was supplemented with 20 μL of corresponding substrate solutions and −NADPH group with 20 μL of corresponding substrate solutions and 10 μL of NADPH. The plates were incubated in a water bath at 37° C., and a timer was set on the incubation. After 30 min of incubation, the plates were taken out, and the reactions were terminated with 250 μL of an ACN solution containing an internal standard. The plates were shaken on a shaker at 800 rpm for 10 min and centrifuged on a centrifuge at 4000 rpm for 15 min. 100 μL of supernatant and 80 μL of ultrapure water were well mixed and subjected to LC-MS/MS analysis.
(In general: Liver microsomes are a subcellular fraction often used to study metabolism.)

Series [2] in a line: Pharmacokinetic evaluation in mice. Format: in vivo, C57 mice. The following applies: for AUC(0-t) / half-life / Vd/F / CL/F / Cmax: female, C57, mouse, plasma; for AUC(0-t): read-out: Area under curve AUC0-t; for half-life: read-out: Half-life T½ (converted); for Vd/F: read-out: Apparent distribution volume Vz/F; for CL/F: read-out: Clearance CLz/F; for Cmax: read-out: Plasma concentration Cmax. Here is the method:
The drug concentrations in the plasma of the test animals (mice) at different time points after intragastric (ig) administration/intravenous (iv) injection of the compounds of the present disclosure were determined by an LC/MS/MS method. The pharmacokinetic behavior of the compound of the present disclosure in mice was studied and its pharmacokinetic profile was evaluated.
Thirty-six C57 mice, female, evenly divided into 4 groups, purchased from Beijing Vital River Laboratory Animal Technology Co., Ltd., with animal production license number: SCXK (Shanghai) 2017-0005.
Intragastric administration: the drugs were intragastrically administered to mice at a dose of 2.0 mg/kg and a volume of 20.0 mL/kg.
Intravenous injection administration: the drugs were administered to mice by intravenous injection at a dose of 1.0 mg/kg and a volume of 10.0 mL/kg.
The blood was placed in an EDTA-K2 anticoagulation tube and centrifuged at 10,000 rpm for 1 min (4° C.), and plasma was separated out within 1 h and then stored at −80° C. before being tested. The process from blood collection to centrifugation was performed under an ice bath.
The content of the test compounds at different concentrations in plasma of mice after the administration was determined: 25 μL of plasma of mice at each time point after the administration was mixed with 200 μL of acetonitrile (containing 50 μL of a solution of internal standard camptothecin (100 ng/mL)); the mixture was vortexed for 1 min, and centrifuged for 10 min (4000 r/min), and 0.5 μL of supernatant was taken for LC/MS/MS analysis.

The nature of series [3]: Pharmacokinetic evaluation in dogs. In kind it is in vivo. The following applies: beagle dogs; for Vd/F / AUC(0-t) / CL/F / half-life / Cmax: male, dog, plasma; for Vd/F: read-out: Apparent distribution volume Vz/F; for AUC(0-t): read-out: Area under curve AUC0-t; for CL/F: read-out: Clearance CLz/F; for half-life: read-out: Half-life T½ (converted); for Cmax: read-out: Plasma concentration Cmax. Here is the method: Dogs are the test animals. The drug concentrations in the plasma of dogs at different time points after intragastric (ig) administration/intravenous (iv) injection of the compounds of the present disclosure were determined by an LC/MS/MS method. The pharmacokinetic performance in beagles of the compounds of the present disclosure was studied and the pharmacokinetic profile thereof was evaluated.
Twelve beagle dogs, males, evenly divided into 4 groups, provided by the animal reserve bank (999M-004) of Shanghai Medicilon Inc. All animals were beagle dogs qualified for physical examination and healthy without abnormalities.
Intragastric administration: the dose was 2 mg/kg and the volume was 50.0 mL/kg.
Intravenous injection administration: the dose was 0.5 mg/kg and the volume was 20.0 mL/kg.
The blood was placed in an EDTA-K2 anticoagulation tube and centrifuged at 10,000 rpm for 5 min (4° C.), and plasma was separated out within 1 h and then stored at −80° C. before being tested. Food intake was resumed 3 h after administration.
The process from blood collection to centrifugation was performed under an ice bath.
The content of the test compounds at different concentrations in plasma of beagle dogs after the administration was determined: 10 μL of plasma of beagle dogs at each time point after the administration was mixed with 200 μL of acetonitrile (containing a solution of internal standard camptothecin (100 ng/mL)); the mixture was vortexed for 1 min, and centrifuged for 7 min (18,000 r/min), and 6 μL of supernatant was taken for LC/MS/MS analysis.

[4] abbreviates: 30 min pre-incubation with NADPH.
Setting [5] is: 30 min pre-incubation without NADPH.
Where [6] appears, read: po, intragastric administration, 2 mg/kg.
[7] abbreviates: intravenous injection, 0.5 mg/kg.

Structures are written as SMILES. Some results are limits rather than exact numbers.

Chain of CYP2C19 (P33261 whole entry): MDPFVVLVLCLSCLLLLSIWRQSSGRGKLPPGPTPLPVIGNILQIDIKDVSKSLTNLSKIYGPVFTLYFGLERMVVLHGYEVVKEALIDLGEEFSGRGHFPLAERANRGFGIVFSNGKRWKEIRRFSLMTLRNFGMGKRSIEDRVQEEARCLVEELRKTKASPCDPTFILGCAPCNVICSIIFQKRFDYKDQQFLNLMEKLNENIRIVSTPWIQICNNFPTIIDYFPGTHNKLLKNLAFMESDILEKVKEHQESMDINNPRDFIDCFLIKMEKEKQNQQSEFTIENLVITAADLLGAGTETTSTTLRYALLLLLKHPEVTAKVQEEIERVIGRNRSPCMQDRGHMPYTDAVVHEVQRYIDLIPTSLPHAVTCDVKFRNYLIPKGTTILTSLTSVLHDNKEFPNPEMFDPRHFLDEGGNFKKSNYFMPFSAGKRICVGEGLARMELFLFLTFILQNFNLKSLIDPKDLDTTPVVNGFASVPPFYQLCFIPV

Consider `O=C(O)c1ccc2nc(CN3CCC(c4cccc5c4O[C@@H](c4ccc(Cl)cc4F)CO5)CC3)n(C[C@@H]3CCO3)c2c1` [Example 4, 2-((4-((S)-3-(4-Chloro-2-fluorophenyl)-2,3-dihydrobenzo[b][1,4]dioxan-5-yl)piperidin-1-yl)methyl)-1-(((S)-oxetan-2-yl)methyl)-1H-benzo[d]imidazole-6-carboxylic acid], for which the IC50 in series [1] (setting [4]) was > 30 µM. Also, in series [1] (setting [5]), the IC50 was > 30 µM. Also, in series [2] (intravenous injection, 1 mg/kg), the AUC(0-t) amounted to 1870 ng·h/mL, the half-life is 1.3 h, the “Apparent distribution volume Vz/F” value amounted to 1.014 L/kg and the “Clearance CLz/F” value was determined as 8.9 mL/min/kg. In series [2] (setting [6]), the Vd/F came out at 4.01 L/kg, the AUC(0-t) came out at 2250 ng·h/mL, the CL/F worked out at 14.8 mL/min/kg and the half-life was 3.1 h. Moreover, the Cmax in series [2] (setting [6]) stood at 797 ng/mL. Besides, in series [3] (setting [7]), the “Apparent distribution volume Vz/F” value stood at 0.908 L/kg, the “Clearance CLz/F” value came out at 1.9 mL/min/kg, the AUC(0-t) stood at 4010 ng·h/mL and the half-life was 5.4 h. Also, in series [3] (setting [7]), the Cmax stood at 1220 ng/mL. For the same compound, in series [3] (setting [6]), the Vd/F was found to be 0.713 L/kg, the AUC(0-t) was determined as 21400 ng·h/mL, the CL/F stood at 1.6 mL/min/kg and the half-life is 5.3 h. The Cmax in series [3] (setting [6]) came to 4040 ng/mL.

`O=C(O)c1ccc2nc(CN3CCC(c4cccc5c4O[C@@H](c4ccc(Cl)cc4F)CO5)CC3)n(C[C@@H]3CCO3)c2n1` [Example 5, 2-((4-((S)-3-(4-Chloro-2-fluorophenyl)-2,3-dihydrobenzo[b][1,4]dioxan-5-yl)piperidin-1-yl)methyl)-3-((S)-oxetan-2-ylmethyl)-3H-imidazo[4,5-b]pyridine-5-carboxylic acid]: in series [2] (intravenous injection, 1 mg/kg), the AUC(0-t) came to 2190 ng·h/mL, the half-life was 1.5 h, the “Apparent distribution volume Vz/F” value worked out at 0.981 L/kg and the “Clearance CLz/F” value was determined as 7.55 mL/min/kg. For the same compound, in series [2] (setting [6]), the Vd/F came out at 5.76 L/kg, the AUC(0-t) came to 1440 ng·h/mL, the CL/F amounted to 23.1 mL/min/kg and the half-life is 2.9 h. Moreover, in series [2] (setting [6]), the Cmax was 359 ng/mL. Moreover, in series [3] (setting [7]), the “Apparent distribution volume Vz/F” value worked out at 0.448 L/kg, the “Clearance CLz/F” value is 1.8 mL/min/kg, the AUC(0-t) came to 4830 ng·h/mL and the half-life is 3 h. In series [3] (setting [7]), the Cmax worked out at 1740 ng/mL. In addition, in series [3] (setting [6]), the Vd/F came out at 0.636 L/kg, the AUC(0-t) was determined as 22100 ng·h/mL, the CL/F came out at 1.7 mL/min/kg and the half-life is 4.9 h. Besides, the Cmax in series [3] (setting [6]) is 4430 ng/mL.

With `C[C@]1(c2ccc(Cl)cc2F)Oc2cccc(C3CCN(Cc4nc5ccc(C(=O)O)cc5n4C[C@@H]4CCO4)CC3)c2O1` [Positive compound 1, reference compound], the IC50 in series [1] (setting [4]) was determined as 2.6 µM; in series [1] (setting [5]) it was 6.4 µM. In series [1] (probe (S)-mephenytoin, CYP2C19 (S)-mephenytoin site, read-out: IC50 shift fold), the IC50 shift at 30 min is 2.5.

As a reminder, the IC50 is the concentration at which inhibition is half-maximal. Lower therefore signals inhibition by little substance. As usually defined, the half-life is how long it takes for the measured level to halve.
